# Assay results published in PubChem BioAssay AID308 (DTP/NCI, 2004).
# Where “and” joins values, the source holds several entries; their conditions need not be identical. Equal values may be shown once. Toxic doses and inconclusive results are not listed.
# System: BDF1 mice, L1210 6-MP/6-TG resistant leukemia ip, survival T/C
# Experiment: NCI In Vivo Anticancer Drug Screen. Data for tumor model L1210 Leukemia resistant to 6-MP and 6-Thioguanine; NSC 755, NSC 752 (intraperitoneal) in B6D2F1 (BDF1) mice
# Conditions: endpoint: mean survival time, higher = longer survival
# Method: The antitumor activity of compounds was measured in mice bearing transplantable tumors. Survival or tumor size were measured and the results are expressed as the measurement made in the treated group (T) divided by the measurement made in the vehicle treated control group (C). The tumor model used in this assay is L1210 Leukemia resistant to 6-MP and 6-Thioguanine; NSC 755, NSC 752 (intraperitoneal) in B6D2F1 (BDF1) mice
# [1] = dose: 1.87 mg/kg/injection, schedule: Q01DX Z (ip), vehicle: carboxymethylcellulose (CMC)
# [2] = dose: 3.75 mg/kg/injection, schedule: Q01DX Z (ip), vehicle: carboxymethylcellulose (CMC)
# [3] = dose: 7.5 mg/kg/injection, schedule: Q01DX Z (ip), vehicle: carboxymethylcellulose (CMC)
# [4] = dose: 15.0 mg/kg/injection, schedule: Q01DX Z (ip), vehicle: carboxymethylcellulose (CMC)
compound,measurement,setting,value
CN(C)c1nc(N(C)C)nc(N(C)C)n1,T/C,"dose: 4.3 mg/kg/injection, schedule: Q01DX Z (ip), vehicle: other",101 % of control
same,T/C,"dose: 8.7 mg/kg/injection, schedule: Q01DX Z (ip), vehicle: other",111 % of control
same,T/C,"dose: 17.5 mg/kg/injection, schedule: Q01DX Z (ip), vehicle: other",109 % of control
same,T/C,"dose: 35.0 mg/kg/injection, schedule: Q01DX Z (ip), vehicle: other",111 % of control
same,T/C,"dose: 50.0 mg/kg/injection, schedule: Q01DX Z (ip), vehicle: other",110 % of control
same,T/C,"dose: 100.0 mg/kg/injection, schedule: Q01DX Z (ip), vehicle: other",98 % of control
CCOC(=O)NP(=O)(N1CC1(C)C)N1CC1(C)C (stereo not given),T/C,"dose: 31.0 mg/kg/injection, schedule: Q01DX Z (ip), vehicle: saline",113 % of control
same,T/C,"dose: 62.0 mg/kg/injection, schedule: Q01DX Z (ip), vehicle: saline",160 % of control
same,T/C,"dose: 62.5 mg/kg/injection, schedule: Q01DX Z (ip), vehicle: saline",228 % of control
same,T/C,"dose: 93.0 mg/kg/injection, schedule: Q01DX Z (ip), vehicle: saline",182 % of control
same,T/C,"dose: 125.0 mg/kg/injection, schedule: Q01DX Z (ip), vehicle: saline",160 % of control and 207 % of control
same,T/C,"dose: 187.0 mg/kg/injection, schedule: Q01DX Z (ip), vehicle: saline",207 % of control
O=C(Nc1ccc(C2=NCCCN2)cc1)c1ccc(C(=O)Nc2ccc(C3=NCCCN3)cc2)cc1,T/C,"dose: 0.46 mg/kg/injection, schedule: Q01DX Z (ip), vehicle: carboxymethylcellulose (CMC)",106 % of control
same,T/C,[1],178 % of control
same,T/C,[2],154 % of control and 195 % of control
same,T/C,[3],155 % of control
same,T/C,[4],113 % of control
CN(Cc1cnc2nc(N)nc(N)c2n1)c1c(Cl)cc(C(=O)NC(CCC(=O)O)C(=O)O)cc1Cl (stereo not given),T/C,"dose: 0.31 mg/kg/injection, schedule: Q01DX015 (ip), vehicle: carboxymethylcellulose (CMC)",154 % of control
same,T/C,"dose: 0.62 mg/kg/injection, schedule: Q01DX015 (ip), vehicle: carboxymethylcellulose (CMC)",238 % of control
same,T/C,"dose: 1.25 mg/kg/injection, schedule: Q01DX015 (ip), vehicle: carboxymethylcellulose (CMC)",307 % of control
same,T/C,"dose: 2.5 mg/kg/injection, schedule: Q01DX015 (ip), vehicle: carboxymethylcellulose (CMC)",175 % of control and 320 % of control
same,T/C,"dose: 5.0 mg/kg/injection, schedule: Q01DX015 (ip), vehicle: carboxymethylcellulose (CMC)",219 % of control and 330 % of control
same,T/C,"dose: 9.0 mg/kg/injection, schedule: Q02DX010 (ip), vehicle: carboxymethylcellulose (CMC)",348 % of control
same,T/C,"dose: 10.0 mg/kg/injection, schedule: Q01DX015 (ip), vehicle: carboxymethylcellulose (CMC)",162 % of control
same,T/C,"dose: 13.0 mg/kg/injection, schedule: Q01DX015 (ip), vehicle: carboxymethylcellulose (CMC)",293 % of control
same,T/C,"dose: 13.0 mg/kg/injection, schedule: Q02DX010 (ip), vehicle: carboxymethylcellulose (CMC)",348 % of control
same,T/C,"dose: 20.0 mg/kg/injection, schedule: Q01DX015 (ip), vehicle: carboxymethylcellulose (CMC)",262 % of control
same,T/C,"dose: 20.0 mg/kg/injection, schedule: Q02DX010 (ip), vehicle: carboxymethylcellulose (CMC)",308 % of control
same,T/C,"dose: 30.0 mg/kg/injection, schedule: Q01DX015 (ip), vehicle: carboxymethylcellulose (CMC)",168 % of control and 181 % of control
same,T/C,"dose: 30.0 mg/kg/injection, schedule: Q02DX010 (ip), vehicle: carboxymethylcellulose (CMC)",310 % of control
same,T/C,"dose: 45.0 mg/kg/injection, schedule: Q01DX015 (ip), vehicle: carboxymethylcellulose (CMC)",269 % of control
same,T/C,"dose: 45.0 mg/kg/injection, schedule: Q02DX010 (ip), vehicle: carboxymethylcellulose (CMC)",343 % of control
same,T/C,"dose: 67.0 mg/kg/injection, schedule: Q02DX010 (ip), vehicle: carboxymethylcellulose (CMC)",348 % of control
same,T/C,"dose: 67.5 mg/kg/injection, schedule: Q01DX015 (ip), vehicle: carboxymethylcellulose (CMC)",205 % of control
same,T/C,"dose: 80.0 mg/kg/injection, schedule: Q01DX015 (ip), vehicle: carboxymethylcellulose (CMC)",116 % of control
same,T/C,"dose: 80.0 mg/kg/injection, schedule: Q01DX015 (ip), vehicle: saline",194 % of control
same,T/C,"dose: 100.0 mg/kg/injection, schedule: Q01DX015 (ip), vehicle: carboxymethylcellulose (CMC)",121 % of control
same,T/C,"dose: 100.0 mg/kg/injection, schedule: Q01DX015 (ip), vehicle: saline",233 % of control
same,T/C,"dose: 120.0 mg/kg/injection, schedule: Q01DX015 (ip), vehicle: carboxymethylcellulose (CMC)",104 % of control
same,T/C,"dose: 120.0 mg/kg/injection, schedule: Q01DX015 (ip), vehicle: saline",112 % of control
same,T/C,"dose: 75.0 micrograms/kg/injection, schedule: Q01DX015 (ip), vehicle: carboxymethylcellulose (CMC)",307 % of control
same,T/C,"dose: 150.0 micrograms/kg/injection, schedule: Q01DX015 (ip), vehicle: carboxymethylcellulose (CMC)",300 % of control
same,T/C,"dose: 310.0 micrograms/kg/injection, schedule: Q01DX015 (ip), vehicle: carboxymethylcellulose (CMC)",293 % of control
same,T/C,"dose: 620.0 micrograms/kg/injection, schedule: Q01DX015 (ip), vehicle: carboxymethylcellulose (CMC)",313 % of control
O=C(Nc1ccc(C2=NCCCN2)cc1)c1ccc(NC(=O)c2ccc(C3=NCCCN3)cc2)cc1,T/C,"dose: 0.75 mg/kg/injection, schedule: Q01DX Z (ip), vehicle: carboxymethylcellulose (CMC)",113 % of control
same,T/C,"dose: 1.5 mg/kg/injection, schedule: Q01DX Z (ip), vehicle: carboxymethylcellulose (CMC)",116 % of control
same,T/C,"dose: 3.0 mg/kg/injection, schedule: Q01DX Z (ip), vehicle: carboxymethylcellulose (CMC)",272 % of control
same,T/C,"dose: 4.0 mg/kg/injection, schedule: Q01DX Z (ip), vehicle: carboxymethylcellulose (CMC)",235 % of control
same,T/C,"dose: 6.0 mg/kg/injection, schedule: Q01DX Z (ip), vehicle: carboxymethylcellulose (CMC)",185 % of control
same,T/C,"dose: 16.0 mg/kg/injection, schedule: Q01DX Z (ip), vehicle: carboxymethylcellulose (CMC)",106 % of control
CCCSc1ncnc2nc[nH]c12,T/C,"dose: 43.5 mg/kg/injection, schedule: Q01DX Z (ip), vehicle: other",98 % of control
same,T/C,"dose: 87.0 mg/kg/injection, schedule: Q01DX Z (ip), vehicle: other",105 % of control
same,T/C,"dose: 175.0 mg/kg/injection, schedule: Q01DX Z (ip), vehicle: other",91 % of control
COC12C(COC(N)=O)C3=C(C(=O)C(C)=C(N)C3=O)N1CC1C2N1C (stereo not given),T/C,"dose: 1.3 mg/kg/injection, schedule: Q01DX015 (ip), vehicle: carboxymethylcellulose (CMC)",166 % of control
same,T/C,"dose: 1.9 mg/kg/injection, schedule: Q01DX015 (ip), vehicle: carboxymethylcellulose (CMC)",120 % of control
same,T/C,"dose: 2.0 mg/kg/injection, schedule: Q01DX015 (ip), vehicle: carboxymethylcellulose (CMC)",254 % of control
same,T/C,"dose: 2.9 mg/kg/injection, schedule: Q01DX015 (ip), vehicle: carboxymethylcellulose (CMC)",181 % of control
same,T/C,"dose: 3.0 mg/kg/injection, schedule: Q01DX015 (ip), vehicle: carboxymethylcellulose (CMC)",229 % of control
same,T/C,"dose: 4.4 mg/kg/injection, schedule: Q01DX015 (ip), vehicle: carboxymethylcellulose (CMC)",123 % of control
same,T/C,"dose: 4.5 mg/kg/injection, schedule: Q01DX015 (ip), vehicle: carboxymethylcellulose (CMC)",189 % of control
same,T/C,"dose: 6.75 mg/kg/injection, schedule: Q01DX015 (ip), vehicle: carboxymethylcellulose (CMC)",166 % of control
CN(C)c1ccc(/C=C\c2ccnc3ccccc23)cc1,T/C,[1],106 % of control
same,T/C,[2],97 % of control
same,T/C,[3],100 % of control
same,T/C,[4],91 % of control
Nc1nc(SCc2ccccc2)c2ncn(C3OC(CO)CC3O)c2n1 (stereo not given),T/C,"dose: 18.75 mg/kg/injection, schedule: Q01DX009 (ip), vehicle: other",100 % of control
same,T/C,"dose: 37.5 mg/kg/injection, schedule: Q01DX009 (ip), vehicle: other",97 % of control
same,T/C,"dose: 75.0 mg/kg/injection, schedule: Q01DX009 (ip), vehicle: other",99 % of control
same,T/C,"dose: 150.0 mg/kg/injection, schedule: Q01DX009 (ip), vehicle: other",91 % of control
O=c1cn[nH]c(=O)[nH]1,T/C,"dose: 125.0 mg/kg/injection, schedule: Q01DX Z (ip), vehicle: carboxymethylcellulose (CMC)",109 % of control
same,T/C,"dose: 250.0 mg/kg/injection, schedule: Q01DX Z (ip), vehicle: carboxymethylcellulose (CMC)",115 % of control
same,T/C,"dose: 375.0 mg/kg/injection, schedule: Q01DX Z (ip), vehicle: carboxymethylcellulose (CMC)",121 % of control
same,T/C,"dose: 500.0 mg/kg/injection, schedule: Q01DX Z (ip), vehicle: carboxymethylcellulose (CMC)",121 % of control
OCn1cnc2c(SC3CCCC3)ncnc21,T/C,"dose: 12.5 mg/kg/injection, schedule: Q01DX009 (ip), vehicle: other",91 % of control
same,T/C,"dose: 50.0 mg/kg/injection, schedule: Q01DX009 (ip), vehicle: other",89 % of control and 93 % of control
